Our source for the EC50 values is patent US11452717B2, “Small molecule activators of nicotinamide phosphoribosyltransferase (NAMPT) and uses thereof” (Sanford Burnham Prebys Medical Discovery Institute, priority 2017, dated 2022).

As usually defined, the EC50 is the concentration giving half of the maximal effect. A high value points to a need for much substance.

In the test the target is NAMPT enzyme (Homo sapiens (Human), UniProt P43490). Nature of the test: Enzyme Assay and NMN Detection (NAMPT reaction, fluorescence detection of NMN). Format: biochemical. To be noted: NAMPT activation, NMN formation. An outline of the steps:
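NMN formed was read at ex380/em460 after acetophenone/KOH derivatization and formic acid addition, using a same-day calibration curve. Final conditions: NAMPT 16 nM, nicotinamide 5 uM, PRPP 6.25 uM, ATP 120 uM, pyrophosphatase 0.04 U/ml, pH 7.5 HEPES buffer with MgCl2 and TCEP, 2 h at room temperature.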

Chain of NAMPT enzyme (P43490 whole entry, species assumed): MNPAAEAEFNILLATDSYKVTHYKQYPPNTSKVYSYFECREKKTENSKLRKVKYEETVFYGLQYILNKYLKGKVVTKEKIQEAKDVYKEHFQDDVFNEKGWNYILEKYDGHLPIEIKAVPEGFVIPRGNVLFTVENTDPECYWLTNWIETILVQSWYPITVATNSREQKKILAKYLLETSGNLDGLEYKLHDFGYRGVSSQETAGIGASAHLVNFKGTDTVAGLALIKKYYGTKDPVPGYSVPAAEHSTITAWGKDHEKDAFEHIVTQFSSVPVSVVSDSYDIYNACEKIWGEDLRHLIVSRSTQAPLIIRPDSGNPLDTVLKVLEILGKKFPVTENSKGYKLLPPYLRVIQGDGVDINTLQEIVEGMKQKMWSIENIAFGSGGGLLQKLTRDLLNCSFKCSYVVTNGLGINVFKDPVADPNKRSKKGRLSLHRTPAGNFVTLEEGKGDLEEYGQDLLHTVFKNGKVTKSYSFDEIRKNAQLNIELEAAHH

In the case of `O=C(NCc1ccncc1)Nc1ccc(S(=O)(=O)NCc2cccc(OC(F)(F)F)c2)cc1` [4-(3-Pyridin-4-ylmethyl-ureido)-N-(3-trifluoromethoxy-benzyl)-benzenesulfonamide], the EC50 (Table B-2) is 100 to 2000 nM.
Still for that read-out and setting: then `O=C(NCc1ccncc1)Nc1ccc(S(=O)(=O)NCc2cccc(C(F)(F)F)c2)cc1` [4-(3-Pyridin-4-ylmethyl-ureido)-N-(3-trifluoromethyl-benzyl)-benzenesulfonamide], with 100 to 2000 nM; and `O=C(NCc1ccncc1)Nc1ccc(S(=O)(=O)NCc2ccc(OC(F)(F)F)cc2)cc1` [4-(3-Pyridin-4-ylmethyl-ureido)-N-(4-trifluoromethoxy-benzyl)-benzenesulfonamide], with 100 to 2000 nM.
With `O=C(NCc1ccncc1)Nc1ccc(S(=O)(=O)NCc2ccc(C(F)(F)F)cc2)cc1` [4-(3-Pyridin-4-ylmethyl-ureido)-N-(4-trifluoromethyl-benzyl)-benzenesulfonamide], the EC50 (Table B-2) was in the range of 100 to 2000 nM.
The same measure, in the same setting: then `O=C(NCc1ccncc1)Nc1ccc(S(=O)(=O)NC2CCOC2)cc1` (stereo not drawn) [4-(3-Pyridin-4-ylmethyl-ureido)-N-(tetrahydro-furan-3-yl)-benzenesulfonamide], with 100 to 2000 nM; and `Cc1cccc(NS(=O)(=O)c2ccc(NC(=O)NCc3ccncc3)cc2)c1` [4-(3-Pyridin-4-ylmethyl-ureido)-N-m-tolyl-benzenesulfonamide], with 100 to 2000 nM.
On the same count and under the same terms, next, `Cc1ccccc1NS(=O)(=O)c1ccc(NC(=O)NCc2ccncc2)cc1` [4-(3-Pyridin-4-ylmethyl-ureido)-N-o-tolyl-benzenesulfonamide]: 100 to 2000 nM.
Under “Table B-2”, `Cc1ccc(NS(=O)(=O)c2ccc(NC(=O)NCc3ccncc3)cc2)cc1` [4-(3-Pyridin-4-ylmethyl-ureido)-N-p-tolyl-benzenesulfonamide] displayed an EC50 of 100 to 2000 nM.
Still for that read-out and setting: then `O=C(NCc1ccncc1)Nc1ccc(S(=O)(=O)Nc2ncccn2)cc1` [4-(3-Pyridin-4-ylmethyl-ureido)-N-pyrimidin-2-yl-benzenesulfonamide], with 5000 to 20000 nM.
Same read-out and setting: next, `O=C(NCc1ccncc1)Nc1ccc(S(=O)(=O)NC2CCNC2)cc1` (stereo not drawn) [4-(3-Pyridin-4-ylmethyl-ureido)-N-pyrrolidin-3-yl-benzenesulfonamide]: 5000 to 20000 nM; `O=C(NCc1ccncc1)Nc1ccc(S(=O)(=O)Nc2nccs2)cc1` [4-(3-Pyridin-4-ylmethyl-ureido)-N-thiazol-2-yl-benzenesulfonamide]: 100 to 2000 nM; `O=C(NCc1ccncc1)Nc1ccc(S(=O)(=O)Nc2ccccc2Cl)cc1` [4-(3-pyridin-4-ylmethyl-ureido)-N-(2-chloro-phenyl)-benzenesulfonamide]: 100 to 2000 nM.
As for `O=C(NCc1ccncc1)Nc1ccc(S(=O)(=O)Nc2cccc(Cl)c2)cc1` [4-(3-pyridin-4-ylmethyl-ureido)-N-(3-chloro-phenyl)-benzenesulfonamide], the EC50 (Table B-2) is 100 to 2000 nM.
Take `O=C(NCc1ccncc1)Nc1ccc(S(=O)(=O)Nc2ccc(Cl)cc2)cc1` [4-(3-pyridin-4-ylmethyl-ureido)-N-(4-chloro-phenyl)-benzenesulfonamide]: the EC50 (Table B-2) lay within 100 to 2000 nM.
The same measure, in the same setting: then `O=C(NCc1ccncc1)Nc1ccc(NS(=O)(=O)c2ccc(Cl)cc2)cc1` [4-Chloro-N-[4-(3-pyridin-4-ylmethyl-ureido)-phenyl]-benzenesulfonamide], with under 100 nM; and `COc1ccc(S(=O)(=O)Nc2ccc(NC(=O)NCc3ccncc3)cc2)cc1` [4-Methoxy-N-[4-(3-pyridin-4-ylmethyl-ureido)-phenyl]-benzenesulfonamide], with 100 to 2000 nM.
In the case of `O=C(NCc1cn[nH]c1)Nc1ccc(S(=O)(=O)Nc2ccccn2)cc1` [4-[3-(1H-Pyrazol-4-ylmethyl)-ureido]-N-pyridin-2-yl-benzenesulfonamide], the EC50 (Table B-1) fell in the range of 2000 to 5000 nM.
Turning to `COC(=O)c1ccc(CNS(=O)(=O)c2ccc(NC(=O)NCc3ccncc3)cc2)cc1` [4-{[4-(3-Pyridin-4-ylmethyl-ureido)-benzenesulfonylamino]-methyl}-benzoic acid methyl ester], the EC50 (Table B-2) was 100 to 2000 nM.
